# Results as given in ChEMBL document CHEMBL1152770, “Inhibitors of hepatitis C virus polymerase: synthesis and biological characterization of unsymmetrical dialkyl-hydroxynaphthalenoyl-benzothiadiazines” (J Med Chem, 2009).
# pIC50: −log10 of the molar value.
# What was measured:
# [1] = Inhibition of HCV isolate BK NS5B polymerase after 3 hrs by scintillation counting
# [2] = Inhibition of HCV isolate H77 NS5B polymerase after 3 hrs by scintillation counting
pIC50 [1],pIC50 [2],Structure (SMILES)
6.29,6.35,CC(C)(C)CC[C@]1(C)C(=O)C(C2=NS(=O)(=O)c3cc(NS(C)(=O)=O)ccc3N2)=C(O)c2ccccc21
5.64,6.20,CC(C)CC[C@]1(C)C(=O)C(C2=NS(=O)(=O)c3cc(NS(C)(=O)=O)ccc3N2)=C(O)c2ccccc21
